The values below are quoted from earlier work in publication PMC10126514, “The interaction of peptide inhibitors and Aβ protein: Binding mode analysis, inhibition of the formation of Aβ aggregates, and then exert neuroprotective effects” (Frontiers in Aging Neuroscience, 2023).

In data set [1] the test system is rat primary cortical neurons. Further details: method as in Pradhan et al., 2019. The settings on record: ref Pradhan et al., 2019; cited from earlier work.
For data set [2] the following is noted: ref Wang et al., 2019, Behl et al., 2020, Tolar et al.; cited from earlier work.

With Ser-Leu-Lys-Pro [SLKP, tetrapeptide], in data set [1], the Neurite growth entry is listed as “promoted significant neurite growth” and the “Neuroprotection against Aβ-mediated toxicity” value is given as “significant neuroprotection against Aβ-mediated toxicity”. For `CCN(C)C(=O)Oc1cccc([C@H](C)N(C)C)c1` [rivastigmine], the Potential side effects result in data set [2] is “Diarrhea, vomiting, nausea, and abdominal cramps”.
